This note sets out measurements from patent US4728659A, “Aminomethyl derivatives and preparation process thereof as well as platelet aggregation inhibitors containing same” (SS Pharmaceutical Co., Ltd., priority 1984, dated 1988).

≈ marks a conversion by molar mass, not a printed value. Bounds are passed on as bounds.

A word on the LD50: it is the dose at which mortality reaches 50%. A high value points to a less toxic substance. The term inhibition denotes the drop in the measured response relative to a control, in per cent.

Data set [1] concerns platelet aggregation by ADP. Nature of the data set: Inhibition of aggregation of rabbit platelets (PRP) by ADP. Format: cell-based. The note with it: Oryctolagus cuniculus, ADP 3 μM, compound added 2 minutes before agent, read-out: 50% Platelet Aggregation Inhibitory Concentration (IC50), ADP. Here is the method:
(§1) Blood, which had been added with sodium citrate, was collected from a male rabbit (body weight: 3 Kg), which was then subjected suitably to centrifugation so that platelet-rich plasma (PRP) and platelet-poor plasma (PPP) were obtained. Inhibitory effects of certain sample compounds of this invention against aggregation by ADP (3 μM) and arachidonic acid (1 mM) were thereafter tested by a method known per se in the art. Each sample compound was dissolved in 5% dimethylsulfoxide (DMSO) and Tween 80 (trade mark) and was then added to PRP 2 minutes before addition of each of the aggregation agents to the PRP.

Data set [2] deals with platelet aggregation by arachidonic acid. In words: Inhibition of aggregation of rabbit platelets (PRP) by arachidonic acid. Format: cell-based. The note with it: Oryctolagus cuniculus, arachidonic acid 1 mM, compound added 2 minutes before agent, read-out: 50% Platelet Aggregation Inhibitory Concentration (IC50), Arachidonic acid. The procedure: as §1
Data set [3] in a line: Acute toxicity, intraperitoneal, mice. Format: in vivo. The note with it: for abnormality observed / survival of mice: 200 mg/Kg intraperitoneal, five ddY male mice, after 7 days; for LD50 at 168 h: mouse, in vivo, ip. The procedure: Each of certain sample compounds (which had been obtained in Examples 6, 7, 10 and 15-17, which will be given herein) was dissolved in water and was then administered intraperitoneally at a dose of 200 mg/Kg to a group of five ddY male mice. Those mice were fed for 7 days while observing them.

Data set [4] deals with platelet aggregation by collagen. In words: Platelet aggregation by collagen in PRP after oral administration to rats (ex vivo). The note with it: 30 mg/Kg oral, male Wister rat, blood collected 2 hours after administration, 100 μg/ml collagen, read-out: Percent inhibition against aggregation, collagen. Here is the method: (§2) Each sample compound was orally administered at 30 mg/Kg to a male Wister rat (body weight: 220 g) which had fasted for 24 hours. Platelet-rich plasma was obtained from blood which had been collected 2 hours after the administration and added with sodium citrate. Changes in platelet aggregation upon addition of 60 μM of ADP or 100 μg/ml of collagen were observed. The number of platelets was adjusted to 6×10^5 platelets/mm^3 for aggregation by ADP and to 3×10^5 platelets/mm^3 for aggregation by collagen. Each of the sample compounds was dissolved in DMSO+Tween 80 (trade mark) prior to its administration.

Data set [5] concerns platelet aggregation by ADP. Nature of the data set: Platelet aggregation by ADP in PRP after oral administration to rats (ex vivo). The note with it: 30 mg/Kg oral, male Wister rat, blood collected 2 hours after administration, 60 μM ADP, read-out: Percent inhibition against aggregation, ADP. The procedure: as §2
The mark [6] stands for this setting: intraperitoneal, ddY male mice, 7 days observation.

On to `CCN(CC)CC#CC(=O)c1ccc(C)cc1` [Example 1, N-[4-(p-Methylphenyl)-4-oxo-2-butynyl]-N,N-diethylamine], for which the figures for the IC50 in data set [1] and in data set [2] were 7 µg/mL (≈ 30.5 µM) and 2.5 µg/mL (≈ 10.9 µM), respectively.
For the compound `CCN(CC)CC#CC(=O)c1ccc(OC)cc1` [Example 4], the IC50 in data set [1] turned out to be 9 µg/mL (≈ 36.7 µM); in data set [2], 3.6 µg/mL (≈ 14.7 µM).
Regarding `CCN(CC)CC#CC(OC(=O)c1cccnc1)c1ccccc1` (centres unmarked) [Example 6, N-(4-Nicotinoyloxy-4-phenyl-2-butynyl)-N,N-diethylamine], in data set [3], the abnormality observed result is listed as “no abnormality was observed” and the survival of mice entry is given as “all the mice were still alive”. The LD50 at 168 h in data set [3] (setting [6]) was > 200 mg/kg.
`CCN(CC)CC#CC(OC(=O)c1cccnc1)c1ccc(C)cc1` (centres unmarked) [Example 7]: the inhibition at 30 mg/kg in data set [4] was determined as 37.6%. For the same compound, in data set [5], the inhibition at 30 mg/kg was 20.1%. In data set [3], the abnormality observed result was “no abnormality was observed”, the survival of mice result was “all the mice were still alive” and the LD50 at 168 h was > 200 mg/kg.
Take `CCN(CC)CC#CC(OC(=O)c1cccnc1)c1ccc(OC)cc1` (centres unmarked) [Example 10]: in data set [3], the abnormality observed result is listed as “no abnormality was observed”, the survival of mice result was “all the mice were still alive” and the LD50 at 168 h is > 200 mg/kg.
With `CCN(CC)C/C=C/C(OC(=O)c1cccnc1)c1ccc(C)cc1` (centres unmarked) [Example 13], the inhibition at 30 mg/kg was found to be 31.5% in data set [4] and 30.5% in data set [5].
Regarding `CN(C)CC#CC(=O)c1ccccc1` [Example 15, N-(4-Phenyl-4-oxo-2-butynyl)-N,N-dimethylamine], the LD50 at 168 h in data set [3] (setting [6]) is > 200 mg/kg. Also, the IC50 in data set [1] turned out to be 21 µg/mL (≈ 112 µM); in data set [2] it was 4.7 µg/mL (≈ 25.1 µM).
The matching figures for `CCCN(CC)CC#CC(=O)c1ccccc1` [Example 16, N-(4-Phenyl-4-oxo-2-butynyl)-N-ethyl-N-n-propylamine]: > 200 mg/kg, 18 µg/mL (≈ 78.5 µM) and 4.3 µg/mL (≈ 18.8 µM).
Regarding `CCN(CC)CC#CC(=O)c1ccccc1` [Example 17], in data set [3], the LD50 at 168 h was > 200 mg/kg. For the same compound, the figures for the IC50 in data set [1] and in data set [2] were 20 µg/mL (≈ 92.9 µM) and 4.5 µg/mL (≈ 20.9 µM), respectively.
